Target: T1, ACVR1 (ALK2) (Homo sapiens, UniProt Q04771)
T1 construct: purchased Thermo Fisher Scientific (Life Technologies) SelectScreen
Assay: SelectScreen LanthaScreen
Format: binding
Settings: read-out: % displacement
Method in brief: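 Percent values come from Thermo SelectScreen profiling of NU5455, combining activity and binding assays. CSF1R was run in Z'LYTE format at Km app ATP, and CAMK1 in Adapta format with ATP listed at 10.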

T1 sequence (Q04771 21-509): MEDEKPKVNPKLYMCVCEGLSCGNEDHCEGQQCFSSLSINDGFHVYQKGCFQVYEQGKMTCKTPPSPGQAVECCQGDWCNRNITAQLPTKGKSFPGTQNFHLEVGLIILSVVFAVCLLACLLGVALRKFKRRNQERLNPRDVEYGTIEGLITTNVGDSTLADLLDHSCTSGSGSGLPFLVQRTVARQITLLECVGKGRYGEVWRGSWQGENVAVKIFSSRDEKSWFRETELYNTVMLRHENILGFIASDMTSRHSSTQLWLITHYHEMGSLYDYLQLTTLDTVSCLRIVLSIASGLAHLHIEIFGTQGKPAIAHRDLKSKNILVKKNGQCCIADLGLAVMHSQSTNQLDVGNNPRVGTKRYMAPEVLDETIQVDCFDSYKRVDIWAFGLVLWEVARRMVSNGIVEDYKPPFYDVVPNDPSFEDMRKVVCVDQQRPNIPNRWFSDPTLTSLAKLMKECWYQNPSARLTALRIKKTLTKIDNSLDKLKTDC

Structure (SMILES): CN(C(=O)CN1CCOCC1)c1ccc2sc3c(-c4cccc5c(=O)cc(N6CC7CCC(C6)O7)oc45)cccc3c2c1 [NU5455]
- inhibition at 1 µM: 0.7%

Reference: paper PMC6934184, “Selective DNA-PKcs inhibition extends the therapeutic index of localized radiotherapy and chemotherapy” (The Journal of Clinical Investigation, 2019)
